US20200102349A1, “PEPTIDE REAGENTS AND METHODS FOR DETECTION AND TARGETING OF DYSPLASIA, EARLY CANCER AND CANCER” (THE REGENTS OF THE UNIVERSITY OF MICHIGAN, priority 2014, published 2020)

Legend:
SW480 cells = experiment: Peptide binding to colorectal cancer cells on confocal microscopy (SW480); format: cell-based, human; conditions: SW480, 5 μM, 3 min
Method: HT29, SW480, and SW620 cells (˜10^3) were grown on cover slips to ˜80% confluence. The cells were washed 1× with PBS and incubated with 5 μM of QRH*-Cy5.5 and PEH*-Cy5.5 for 3 min at RT. The cells were then washed 3× in PBS, fixed with 4% paraformaldehyde (PFA) for 5 min, washed 1× with PBS, and then mounted on glass slides with ProLong Gold reagent containing DAPI (Invitrogen). Confocal fluorescence images were collected with FITC, Cy5.5, and DAPI filters (Leica Inverted SPSX Confocal Microscope System) using a 63× oil-immersion objective. Fluorescence intensities from 5 cells in 2 independent images were quantified using custom Matlab (Mathworks) software.
We assessed binding of QRH*-Cy5.5 to a panel of colorectal cancer cells that vary in EGFR expression level on confocal microscopy. We observed binding of QRH*-Cy5.5 to the surface (arrows) of HT29, SW480, and SW620 cells with decreasing strength, FIG. 3A-C, scale bars 30 μm. […] Results are an average of 10 cells from 2 independent images. EGFR expression is shown on Western blot, FIG. 3H.

human colonic dysplasia = experiment: Binding of EGFR peptide and antibody to human colonic dysplasia specimens, confocal microscopy; conditions: for log transformed fluorescence intensity, mean (±std): 5 μM, 10 min
Method: For the in vivo fluorescence images of mouse colon, the T/B ratios for flat dysplasia and polyps were log-transformed to improve normality. The fold-change between classification pairs was estimated using the anti-log of the difference in the log-transformed data. Differences in results between the experimental and control peptides were evaluated on t-test. *P<0.05 was considered significant. Similar methods were used to evaluate the ex vivo fluorescence images of human colonic specimens. The results were plotted on a receiver-operator characteristic (ROC) curve. Co-localization of peptide and antibody binding was evaluated on Pearson's correlation coefficient. All analyses were performed using custom Matlab software (MathWorks Inc).
Specimens of human colonic mucosa were obtained from biopsy during routine colonoscopy, frozen in OCT, cut in 10 μm sections, and incubated with QRH*-Cy5.5 (5 μM) in 1×PBS for 10 min at RT. The sections were washed 3× with PBS and incubated overnight at 4° C. with 1:1000 dilution of primary monoclonal rabbit anti-EGFR antibody (Cell Signaling Technology, #4267, isotype IgG). The sections were washed with PBS 3× and incubated with 1:500 dilution of Alexa Fluor 488-labeled secondary goat anti-rabbit antibody (Invitrogen) for 1 hour at RT. The sections were washed with PBS 3×, and fixed with 4% PFA for 10 min. The sections were then washed with PBS 1×, and mounted with ProLong Gold reagent containing DAPI (Invitrogen). Confocal fluorescence images were collected with DAPI, FITC and Cy5.5 filters with 20× objective (Leica TCS SP5 Microsystems). The mean fluorescence intensities from 3 boxes (dimensions of 30×30 μm2) located completely within the surface epithelium of each specimen were measured. […] Adjacent sections were processed for routine histology (H&E) that was reviewed by two gastrointestinal pathologists (SRO and HDA).

average fold-change for dysplasia compared to normal (human colonic dysplasia): 19.4
log transformed fluorescence intensity, mean (±std) (human colonic dysplasia; dysplasia (n=29)): 1.04±0.54
log transformed fluorescence intensity, mean (±std) (human colonic dysplasia; normal (n=15)): −0.248±0.49
Substance: QRHKPRE (SEQ ID NO: 1) with Cy5.5 fluorophore attached via a GGGSK linker (SEQ ID NO: 18) on the C-terminus [QRH*-Cy5.5]
fluorescence intensity of binding (mean±std) (SW480 cells): 2.4±0.4
